{"source": "patent US20230111504A1", "about": "“COR[…] AND AVERMECTINS” (Huvepharma EOOD, priority 2020, published 2023)", "key": {"[1]": {"settings": "rats; cited from earlier work"}, "[2]": {"settings": "mice; cited from earlier work"}, "[3]": {"settings": "rhesus monkeys, cited from earlier work"}, "[4]": {"tested_on": "mouse lymphoma", "settings": "cited from earlier work"}, "[5]": {"settings": "fourteen-week study, dogs; cited from earlier work"}, "[6]": {"settings": "rabbits; cited from earlier work"}, "[7]": {"settings": "cited from earlier work; for mean peak plasma concentration of the major component (H2B1a): single 12-mg dose (mean 165 mcg/kg)"}, "[8]": {"settings": "dogs; cited from earlier work"}, "[9]": {"settings": "fourteen-week study, rats; cited from earlier work"}, "[10]": {"settings": "various species; cited from earlier work"}, "[11]": {"tested_on": "COVID-19", "assay": "COVID-19 clinical trial: clinical improvement on WHO 9-category ordinal scale", "format": "in vivo, human", "protocol": "(§1) Inclusion Criteria • 1. Male or female patients at least 18 years and up to 75 years old • 2. Signed informed consent • 3. Admitted to hospital for treatment of COVID-19. • 4. Patient within 7 days from symptom onset and within 72 hours after laboratory diagnosis (SARS-CoV-2 RT-PCR) • 5. Mild to Moderate COVID-19 disease defined as clinical status category up to 3 on the WHO 9-point ordinal scale, and/or NEWS2 score of 0 to 4 inclusive. • Hospitalized, no oxygen treatment • 6. Presence of at least 1 symptom characteristic for COVID-19 disease, e.g. fever, cough, sore throat, myalgia, fatigue, GI disorders, skin lesions, anosmia, ageusia, headache, etc • 7. In women of childbearing potential, negative pregnancy test and commitment to use contraceptive method throughout the study.\n(§2) Patients are screened for 24-36 hours. […] It is encouraged to screen potential participants immediately at the day of hospitalization (including informed consent, assessment of inclusion/exclusion criteria, screening laboratory tests all done by the local central lab, assessment of clinical symptoms criteria) and randomize patients on the same day (thus, Screening period and Day 1 will coincide). To assess eligibility criteria, central local laboratory values obtained within 24-36 hours of randomization will be used, except for pre-study testing of positive status of COVID-19 infection where a 72-hours window.\nThe secondary endpoints, related to the secondary study objectives are the following: • a. Number of patients achieving clinical improvement on Day 7 • b. Number of patients achieving clinical improvement on Day 14 • c. Number of patients achieving clinical recovery on Day 7 • d. Number of patients achieving clinical recovery on Day 14\n(§3) Day 1 is defined as the day of the first IMP/placebo administration.\nThe clinical disease severity during the study will be assessed based on the WHO Ordinal Scale for Clinical Status (Table 2). The WHO scale is a 9-category ordinal scale and was developed to have a standardized measure of the COVID-19 disease severity. The scale comprises patient status (outpatient or hospitalized), virus status (infected yes or no), limitation of activities, oxygen support, and organ support.\nThe same picture was observed on Day 5, with difference 18% (p=0.03 . . . ), regarding the endpoint Clinical improvement. This endpoint was measured using WHO 9-category ordinal scale, developed to have a standardized measure of the COVID-19 disease severity. Clinical improvement is defined as a decrease on WHO ordinal scale score by at least one point. For our statistical calculations from data obtained from the clinical trials we used the method described above i.e. O'Brien-Fleming method for normally distributed data."}, "[12]": {"tested_on": "SARS-CoV-2", "assay": "COVID-19 clinical trial: viral clearance in upper respiratory tract swab samples (RT-PCR)", "format": "in vivo, human", "protocol": "as §1, §2\nPrimary endpoint based on which the primary study objective will be assessed is proportion of patients who have shown negative SARS-CoV-2 PCR test on Day 7.\nas §3\nViral Clearance in Upper Respiratory Tract Swab Samples (Qualitative)—Remission\nUpper respiratory tract swab samples will be collected on Days 3, 4, 5, 6, 7, 9, 12 and 14 or until two negative results are obtained. Between Day 15 and Day 28 RT-PCR shall be done upon the discretion of the Investigator until 2 consecutive negative tests.\nNo further RT-PCR tests will be done after 2 consecutive negative tests are obtained at any time point of the study. Swab samples should be obtained from the nasopharynx and oropharynx with two different swabs and combined in one tube, containing universal transport media. Samples are collected preferably in the mornings of each study day. Full instructions for collection, preparation, labelling, storage and shipment of samples are provided in the Laboratory Manual."}, "[13]": {"tested_on": "C reactive protein", "assay": "COVID-19 clinical trial: predictive marker C reactive protein", "format": "in vivo, human", "settings": "Day 14"}, "[14]": {"settings": "acute oral, mice; cited from earlier work"}, "[15]": {"settings": "repeated dose, 2 weeks, rhesus monkeys; cited from earlier work"}, "[16]": {"tested_on": "COVID-19", "assay": "COVID-19 clinical trial: time to hospital discharge", "format": "in vivo, human", "settings": "p=0.2755", "protocol": "as §1\nas §2, with “window. […]” for “window.”"}, "[17]": {"settings": "acute oral, rats; relative to 200 μg/kg in mice; cited from earlier work"}, "[18]": {"settings": "variety of species; cited from earlier work"}, "[19]": {"tested_on": "human fibroblast cell culture", "settings": "cited from earlier work"}, "[20]": {"tested_on": "D-dimer", "assay": "COVID-19 clinical trial: predictive marker D-dimer", "format": "in vivo, human"}, "[21]": {"settings": "people treated with ivermectin; cited from earlier work"}}, "note": "Read-outs that look alike come from different tables or passages of the source.", "data": [{"substance": "ivermectin", "values": [{"measurement": "oral dose causing cleft palates", "setting": "[1]", "value": 10, "unit": "mg/kg/day"}, {"measurement": "oral dose causing cleft palates", "setting": "[2]", "value": 0.4, "unit": "mg/kg/day"}, {"measurement": "minimum toxic dose", "setting": "[3]; acute oral", "value": "2,000 μg/kg"}, {"measurement": "toxic effects (emesis, mydriasis, sedation) at high doses", "setting": "[3]; doses up to 24 mg/kg (120-fold the clinical dose)", "value": "only slight increases in the observed toxic effects"}, {"measurement": "mouse lymphoma mutation assay result", "setting": "[4]", "value": "negative"}, {"measurement": "dose with no adverse effects", "setting": "[5]", "value": 500, "unit": "µg/kg/day"}, {"measurement": "dose causing cleft palates and clubbed feet", "setting": "[6]", "value": 3, "unit": "mg/kg/day"}, {"measurement": "mean peak plasma concentration of the major component (H2B1a)", "setting": "[7]; first of two studies, fasting healthy volunteers, range 16.4-101.1", "value": "46.6 (±21.9) ng/mL"}, {"measurement": "period of excretion in the feces", "setting": "[7]; ivermectin and/or metabolites, excreted almost exclusively in the feces", "value": "~12", "unit": "days"}, {"measurement": "plasma half-life", "setting": "[7]; man, oral administration", "value": "approximately 18 hours"}, {"measurement": "plasma concentration versus dose", "setting": "[7]; oral administration", "value": "approximately proportional to the dose"}, {"measurement": "administered dose excreted in the urine", "setting": "[7]; oral", "value": "less than 1%"}, {"measurement": "mean peak plasma concentration of the major component (H2B1a)", "setting": "[7]; second of two studies, fasting healthy volunteers, range 13.9-68.4", "value": "30.6 (±15.6) ng/mL"}, {"measurement": "time of peak plasma concentration after dosing", "setting": "[7]; single 12-mg dose, fasting healthy volunteers", "value": "approximately 4 hours"}, {"measurement": "single oral dose with no significant lethality", "setting": "[8]", "value": "up to 10 mg/kg"}, {"measurement": "dose with no adverse effects", "setting": "[9]", "value": 400, "unit": "µg/kg/day"}, {"measurement": "breeding performance", "setting": "[10]", "value": "has not been adversely affected"}, {"measurement": "Clinical improvement versus placebo arm", "setting": "[11]; Day 4, p=0.02..., decrease on WHO ordinal scale by at least one point", "value": "statistically significant difference"}, {"measurement": "Clinical improvement, difference versus placebo arm", "setting": "[11]; Day 5, p=0.03...", "value": 18, "unit": "%"}, {"measurement": "Clinical improvement by visit day", "setting": "[11]; FIG. 3, later difference statistically insignificant", "value": "better results at days 4 and 5"}, {"measurement": "overall clinical benefit versus Placebo treatment arm", "setting": "[11]; early days of infection (day 4 and day 5 after initial dose)", "value": "definitely shows clinical benefit"}, {"measurement": "effect on viral clearance", "setting": "[12]; Day 4, immediately after treatment, 2 consecutive negative PCR tests", "value": "beneficial effect on the viral clearance"}, {"measurement": "patients with negative PCR test results (2 consecutive negative tests)", "setting": "[12]; Day 4, 400 μg/kg/day peroral Days 1-3 plus SoC, placebo arm 42%", "value": 52, "unit": "%"}, {"measurement": "Day of second negative PCR test, Mean", "setting": "[12]; N=50, 400 μg/kg/day peroral Days 1-3 plus SoC", "value": 5.52}, {"measurement": "day by which the effect appears", "setting": "[12]; PCR test endpoint", "value": "< 7", "unit": "days"}, {"measurement": "Day of second negative PCR test, Difference Reference minus Test", "setting": "[12]; p-value 0.3407, statistically insignificant", "value": 0.54, "unit": "days"}, {"measurement": "CRP mean value", "setting": "[13]", "value": 13.76, "unit": "mg/L"}, {"measurement": "CRP median value", "setting": "[13]", "value": 3.70, "unit": "mg/L"}, {"measurement": "dose producing tremors and ataxia", "setting": "[14]", "value": 0.2, "unit": "mg/kg"}, {"measurement": "dose with no adverse effects", "setting": "[15]", "value": "up to 1,200 μg/kg/day"}, {"measurement": "Time to hospital discharge, difference between arms", "setting": "[16]", "value": "no statistically significant difference"}, {"measurement": "dose producing tremors and ataxia", "setting": "[17]", "value": "slightly higher doses"}, {"measurement": "tolerability of a 200 μg/kg dose", "setting": "[18]", "value": "generally well tolerated"}, {"measurement": "unscheduled DNA synthesis", "setting": "[19]", "value": "did not induce"}, {"measurement": "D-dimer mean value", "setting": "[20]; Day 3", "value": 395.8, "unit": "ng/mL"}, {"measurement": "D-dimer mean value", "setting": "[20]; Day 14", "value": 561.69, "unit": "ng/mL"}, {"measurement": "common side effects", "setting": "[21]", "value": "headache, dizziness, drowsiness, muscle pain, abdominal pain, nausea, vomiting or diarrhea, pruritus, fatigue, hypotension"}]}]}
